The experiment concerns the target T1, mTOR (Rattus norvegicus, UniProt P42346).
T1 construct: expressed in transfected cells; host or cells: 293T
Put plainly: Immune complex assay of mTOR activity, compound added to extracts or immune complexes. In kind it is biochemical. The following applies: for PHAS-I kinase activity of AU1-mTOR: extracts incubated with increasing concentrations. The procedure:
293T cells were transfected with expression vectors for AU1-epitope tagged mTOR, HA-tagged raptor, and HA-tagged mLST8. After 24 h, the overexpressed mTOR was immunoprecipitated with AU1 antibodies, and immune complexes were incubated with increasing concentrations of FTS in a reaction mixture containing 2 mM [γ^32P] ATP (250 μCi/ml), 20 mM MnCl2, and 0.1 mg/ml purified recombinant histidine-tagged PHAS-1. After fifteen minutes the reaction was stopped by adding SDS sample buffer, and samples were subjected to SDS-PAGE. The amount of ^32P incorporated into PHAS-I was determined and expressed as a percentage of that incorporated in the absence of FTS. Mean values±the half the range of two experiments are presented.
293T cells were transfected with pcDNA3 alone (Vec.) or with a combination of pcDNA3AU1-mTOR, pcDNA33HA-Raptor, and pcDNA33HA-mLST8. Extracts of the cells were incubated with increasing concentrations of FTS before AU1-mTOR was immunoprecipated. Samples of the immune complexes were incubated with [γ-^32P]ATP and recombinant [His^6]PHAS-I, then subjected to SDS-PAGE and transferred to an immobilon membrane. After obtaining a phosphorimage of the membrane to detect ^32P-PHAS-I, the membrane was immunoblotted with PThr^36/45 antibodies. Other samples of the immune complexes were subjected to SDS-PAGE and immunoblots were prepared with antibodies to the HA epitope or to mTOR (see FIG. 13A). Extracts of nontransfected 293T cells were incubated with increasing concentrations of FTS before mTOR was immunoprecipated with mTAb1. A control immunoprecipitation was conducted using nonimmune IgG (NI). Immune complexes were subjected to SDS-PAGE and immunoblots were prepared with antibodies to mLST8, mTOR, and raptor.
Samples of extracts from 293T cells overexpressing AU1-mTOR, HA-raptor, and HA-mLST8 were incubated for 1 h with increasing concentrations of FTS (●, ▴, ▪) or GTS (∘, Δ, □) before immunoprecipitations were conducted with anti-AU1 antibodies. mTOR kinase activity (●, ∘) was determined by measuring ^32P incorporation into [His^6]PHAS-I in immune complex kinases assays performed with [γ-^32P]ATP (see FIG. 14A). The relative amounts of HA-raptor (▴, Δ) and HA-mLST8 (▪, □) that coimmunoprecipitated with AU1-mTOR were determined after immunoblotting with anti-HA antibodies (see FIG. 14B). The results (mean values+S.E. from 5 experiments) are expressed as percentages of the mTOR activity (FIG. 14A) or coimmunoprecipitating proteins (FIG. 14B) from samples incubated without FTS or GTS, and have been corrected for the amounts of AU1-mTOR immunoprecipitated.
293T cells were transfected with pcDNA3 alone (Vec.) or with a combination of pcDNA3AU1-mTOR, pcDNA33HARaptor, and pcDNA33HA-mLST8. AU1-mTOR was immunoprecipitated and samples of the washed immune complexes were at incubated […] for 30 min with no inhibitors or with the following: caffeine (1 mM), FTS (50 μM), LY294002 (10 μM), rapamycin (1 μM) plus FKBP12 (10 μM), and 1 μM wortmannin. To prevent destruction of wortmannin, incubations were conducted in the absence of thiol reducing agents. Samples of the immune complexes were incubated for 10 min with 10 mM MnCl2, 1 mM [γ-^32P]ATP, and 50 μg/ml [His^6]PHAS-I to assess mTOR activity. Other samples were rinsed twice, subjected to SDS-PAGE, and immunoblotted with anti-HA and anti-AU1 antibodies to determine the amounts of HA-raptor and HA-mLST8 associated with AU1-mTOR. The relative amounts of ^32P incorporated into PHAS-I were determined by phosphorimaging (see FIG. 15B).

Take `CC(C)=CCC/C(C)=C/CC/C(C)=C/CSc1ccccc1C(=O)O` [FTS, farnesylthiosalicylic acid]: the “concentration at which the effect on mTOR kinase activity could be seen” value was 25 µM, the “concentration of maximal effect on mTOR kinase activity” value came to 100 µM and the “PHAS-I kinase activity of AU1-mTOR” value is “progressively decreased”. Further, the mTOR activity result (FTS 50 μM, comparison with other mTOR inhibitors) is given as “decreased”. Also, the “concentrations needed to inhibit mTOR activity in vitro relative to intact cells” value (extracts vs intact cells) is on record as “Approximately four times lower”. In addition, the “ability of mTOR to phosphorylate a substrate specific to mTOR” value (recombinant mTOR immunoprecipitated from transfected cells) is listed as “completely blocked”.

`CC(C)=CCC/C(C)=C/CSc1ccccc1C(=O)O` [GTS, S-geranylthiosalicylic acid, reference compound]: the “PHAS-I kinase activity of AU1-mTOR” value is recorded as “progressive decreases”. The “concentrations for effects on AU1-mTOR activity and AU1-mTOR/HA-raptor association relative to FTS” value (extracts of transfected cells) is given as “approximately ten times higher”.

Values taken from patent US20070037887A1, “Blockade of mtor to prevent a hormonal adaptive response” (University of Virginia Patent Foundation, priority 2003, published 2007).
